Laboratory results as given in patent US20260345517A1, “DOSAGE REGIMENS FOR TREATING STARGARDT DISEASE” (Alkeus Pharmaceuticals, Inc., priority 2024, published 2026).

Tests used:
[1] = tested on: asymptomatic Stargardt disease patients; assay: TEASE-3: photoreceptor loss (ellipsoid zone band loss) by optical coherence tomography; format: in vivo, human; conditions: 14 mg daily
Experimental: FIG. 5 is a graph showing retinal photoreceptor loss over time in three asymptomatic Stargardt disease patients taking gildeuretinol acetate 14 mg daily. Lines are piecewise linear regressions with a knot time of 6 months and show the mean area of retinal photoreceptor loss of both eyes. Each symbol represents the area of photoreceptor loss for calculated for one eye. To measure photoreceptor loss, the ellipsoid zone layer was evaluated on b-scans acquired on Heidelberg engineering optical coherence tomography (Heidelberg, Germany).
The tolerability and effects of gildeuretinol acetate in Stargardt Disease (Clinical trial group 3 also known as TEASE-3) study was an open-label, multicenter, case control study designed to evaluate the efficacy and safety of gildeuretinol acetate on the progression of Stargardt disease in asymptomatic individuals. The trial was conducted at multiple sites in the United States.
Patients received gildeuretinol acetate 14 mg capsules, to be taken orally once daily. Trial visits occurred every 6 months approximately following screening and treatment start visits.
Disease progression was monitored by best-corrected visual acuity (BCVA) reported in number of Early Treatment Diabetic Retinopathy Study (ETDRS) letters, fundus autofluorescence (FAF) imaging, loss of photoreceptors (as measured by the ellipsoid zone band loss) by optical coherence tomography (OCT) according to literature (1-3) and retinal sensitivity by microperimetry.
Measurements from the left and right eye for each patient were averaged for each visit to produce a single statistical unit for both eyes(4). For segmented linear regressions, knot times were selected so that three visits were included in the first segment.

[2] = tested on: asymptomatic Stargardt disease patients; assay: TEASE-3: retinal sensitivity by fundus-tracking microperimetry; format: in vivo, human; conditions: 14 mg daily
Experimental: FIG. 4 is a graph showing mean retinal sensitivity (dB) over time in three asymptomatic Stargardt disease patients taking gildeuretinol acetate 14 mg daily. Lines show mean retinal sensitivity of both eyes. Lines are piecewise linear regressions with a knot time of 12 months. Each symbol represents a retinal sensitivity measurement for each eye. Patient 1 retinal sensitivity was measured with a Nidek MP-1 (Nidek, Gamagori, Japan). Patients 2 and 3 retinal sensitivity was measured with the CenterVue Macular Integrity Assessment or MAIA (CenterVue, Padova, Italy).
The tolerability and effects of gildeuretinol acetate in Stargardt Disease (Clinical trial group 3 also known as TEASE-3) study was an open-label, multicenter, case control study designed to evaluate the efficacy and safety of gildeuretinol acetate on the progression of Stargardt disease in asymptomatic individuals. The trial was conducted at multiple sites in the United States. […]
Disease progression was monitored by best-corrected visual acuity (BCVA) reported in number of Early Treatment Diabetic Retinopathy Study (ETDRS) letters, fundus autofluorescence (FAF) imaging, loss of photoreceptors (as measured by the ellipsoid zone band loss) by optical coherence tomography (OCT) according to literature (1-3) and retinal sensitivity by microperimetry. […]

SMILES: CC(=O)OC/C=C(C)/C=C/C=C(C)/C=C/C1=C(C)CCCC1(C)C [gildeuretinol acetate, C20-D3-retinol acetate]
- average area of photoreceptor loss [1]: 0.36±0.32 mm^2
- average area of photoreceptor loss, share of the foveal area [1]: 20%
- photoreceptor loss, following years of treatment ([1]; after first six months): trended toward an improvement
- photoreceptor loss rate ([1]; first six months, average for two patients): approximately 0.18 mm^2/year
- photoreceptor loss, third patient ([1]; full treatment period): no photoreceptors were lost
- rate of change of mean retinal sensitivity ([2]; first year of treatment): −3.1±1.5 dB/year
- rate of change of mean retinal sensitivity (improvement) ([2]; years following the first year): +0.93±0.7 dB/year
